Structures can show the parent of a compound that is named as a salt. Where two headings read alike, the source gives them in different places.
Conditions: stirring

Solubility (Observation: amount soluble, clear solution) (Capmul MCM (glyceryl mono- & dicaprate), RT): 64 mg/g soluble,
Solubility (Observation: amount soluble, clear solution) (Cremophor EL (polyoxyethylene castor oil derivative), RT): 25 mg/g soluble,
Solubility (Observation: amount soluble, clear solution) (Ethanol, RT): 66.6 mg/g soluble,
Solubility (Observation) (Gelucire 44/14 (Lauroyl macrogol-32 glyceride), 45-50° C.): Not soluble
Solubility (Observation) (Labrafil M 1944 CS (polyoxyethylated glycolysed glycerides), 37° C.): Not soluble
Solubility (Observation) (Labrafil M 1944 CS (polyoxyethylated glycolysed glycerides), RT): Not soluble
Solubility (Observation: amount soluble, clear solution) (Labrasol (Caprylocaproyl macrogol-8 glyceride), 37-40° C.): 10 mg/g soluble,
Solubility (Observation) (Miglyol 810 (Caprylic/Capric Triglyceride), 37° C.): Not soluble
Solubility (Observation) (Miglyol 810 (Caprylic/Capric Triglyceride), RT): Not soluble
Solubility (Observation: amount soluble, clear solution) (Polyethylene Glycol 400, RT): 25 mg/g soluble,
Solubility (Observation: amount soluble, clear solution) (Propylene Glycol, RT): 25 mg/g soluble,
Solubility (Observation) (Soybean oil, 37° C.): Not soluble
Solubility (Observation) (Soybean oil, RT): Not soluble
Solubility (Observation: amount soluble, clear solution) (Transcutol (2-(2-ethoxyethoxy)ethanol), RT): 25 mg/g soluble,
Solubility (Observation: amount soluble, clear solution) (Tween 80 (polyoxyethylene sorbitan fatty acid esters), RT): 10 mg/g soluble,
SMILES: C#CCN[C@@H]1CCc2ccccc21 [Rasagiline mesylate, R(+)-N-propargyl-1-aminoindan]

— patent US20100008983A1 (priority 2008, published 2010)
